# Where two headings read alike, the source gives them in different places.
# How the values were obtained:
# [1] = tested on: Klebsiella pneumoniae (KPN) isolates; experiment: MIC of compounds alone and combined with antibacterials, broth microdilution (CLSI); assay type: cell-based; conditions: for MIC: Klebsiella pneumoniae
# In short: (§1)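 Inoculum 5·10^5 CFU/mL (final), log phase, ca-MHB; 16-20 h, 35° C, ambient air. MIC = lowest conc. with no visible growth; ATB MIC read at each compound level.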
# [2] = tested on: Citrobacter freundii (CFR) isolates; experiment: as above; assay type: cell-based
# In short: as §1
smiles,measurement,setting,value
"CC(C)(O/N=C(\C(=O)N[C@@H]1C(=O)N2C(C(=O)[O-])=C(C[n+]3ccccc3)CS[C@H]12)c1csc(N)n1)C(=O)O [CAZ, Ceftazidime]",MIC ATB in combination,"[1]; KPN 6299, AF1 @ 4 μg/mL",0.5 µg/mL
same,MIC ATB in combination,"[1]; KPN 6299, AF1 @ 8 μg/mL",<=0.25 μg/mL
same,MIC ATB in combination,"[1]; KPN 110376, AF1 @ 4 μg/mL",<=0.25 μg/mL
same,MIC ATB in combination,"[1]; KPN 110376, AF1 @ 8 μg/mL",<=0.25 μg/mL
same,MIC ATB in combination,"[1]; KPN 131119, AF1 @ 4 μg/mL",0.5 µg/mL
same,MIC ATB in combination,"[1]; KPN 131119, AF1 @ 8 μg/mL",<=0.25 μg/mL
same,MIC ATB in combination,"[1]; KPN 140513, AF1 @ 4 μg/mL",16 µg/mL
same,MIC ATB in combination,"[1]; KPN 140513, AF1 @ 8 μg/mL",2 µg/mL
same,MIC ATB in combination,"[1]; KPN 160143, AF1 @ 4 μg/mL",1 µg/mL
same,MIC ATB in combination,"[1]; KPN 160143, AF1 @ 8 μg/mL",<=0.25 μg/mL
same,MIC ATB in combination,"[1]; KPN 190128, AF1 @ 4 μg/mL",0.5 µg/mL
same,MIC ATB in combination,"[1]; KPN 190128, AF1 @ 8 μg/mL",<=0.25 μg/mL
same,MIC ATB in combination,"[1]; KPN 190270, AF1 @ 4 μg/mL",0.5 µg/mL
same,MIC ATB in combination,"[1]; KPN 190270, AF1 @ 8 μg/mL",<=0.25 μg/mL
same,MIC ATB in combination,"[1]; KPN 190425, AF1 @ 4 μg/mL",<=0.25 μg/mL
same,MIC ATB in combination,"[1]; KPN 190425, AF1 @ 8 μg/mL",<=0.25 μg/mL
same,MIC ATB in combination,"[1]; KPN 190551, AF1 @ 4 μg/mL",<=0.25 μg/mL
same,MIC ATB in combination,"[1]; KPN 190551, AF1 @ 8 μg/mL",<=0.25 μg/mL
same,MIC ATB in combination,"[1]; KPN 200047, AF1 @ 4 μg/mL",<=0.25 μg/mL
same,MIC ATB in combination,"[1]; KPN 200047, AF1 @ 8 μg/mL",<=0.25 μg/mL
same,MIC ATB in combination,"[1]; KPN 200327, AF1 @ 4 μg/mL",<=0.25 μg/mL
same,MIC ATB in combination,"[1]; KPN 200327, AF1 @ 8 μg/mL",<=0.25 μg/mL
same,MIC ATB in combination,"[1]; KPN 260251, AF1 @ 4 μg/mL",1 µg/mL
same,MIC ATB in combination,"[1]; KPN 260251, AF1 @ 8 μg/mL",<=0.25 μg/mL
same,MIC ATB in combination,"[1]; KPN 260252, AF1 @ 4 μg/mL",32 µg/mL
same,MIC ATB in combination,"[1]; KPN 260252, AF1 @ 8 μg/mL",8 µg/mL
same,MIC ATB in combination,"[1]; KPN 260376, AF1 @ 4 μg/mL",<=0.25 μg/mL
same,MIC ATB in combination,"[1]; KPN 260376, AF1 @ 8 μg/mL",<=0.25 μg/mL
same,MIC ATB in combination,"[1]; KPN 270077, AF1 @ 4 μg/mL",<=0.25 μg/mL
same,MIC ATB in combination,"[1]; KPN 270077, AF1 @ 8 μg/mL",<=0.25 μg/mL
same,MIC ATB in combination,"[1]; KPN 700603, AF1 @ 4 μg/mL",1 µg/mL
same,MIC ATB in combination,"[1]; KPN 700603, AF1 @ 8 μg/mL",<=0.25 μg/mL
same,MIC ATB in combination,"[1]; KPN ARA, AF1 @ 4 μg/mL",<=0.25 μg/mL
same,MIC ATB in combination,"[1]; KPN ARA, AF1 @ 8 μg/mL",<=0.25 μg/mL
same,MIC ATB in combination,"[1]; KPN BAA-1898, AF1 @ 4 μg/mL",1 µg/mL
same,MIC ATB in combination,"[1]; KPN BAA-1898, AF1 @ 8 μg/mL",<=0.25 μg/mL
same,MIC ATB in combination,"[1]; KPN LIB, AF1 @ 4 μg/mL",<=0.25 μg/mL
same,MIC ATB in combination,"[1]; KPN LIB, AF1 @ 8 μg/mL",<=0.25 μg/mL
same,MIC ATB in combination,"[1]; KPN UFR22_O, AF1 @ 4 μg/mL",<=0.25 μg/mL
same,MIC ATB in combination,"[1]; KPN UFR22_O, AF1 @ 8 μg/mL",<=0.25 μg/mL
same,MIC ATB in combination,"[1]; KPN UFR23, AF1 @ 4 μg/mL",<=0.25 μg/mL
same,MIC ATB in combination,"[1]; KPN UFR23, AF1 @ 8 μg/mL",<=0.25 μg/mL
same,MIC ATB in combination,"[1]; KPN UFR24, AF1 @ 4 μg/mL",1 µg/mL
same,MIC ATB in combination,"[1]; KPN UFR24, AF1 @ 8 μg/mL",0.5 µg/mL
same,MIC ATB in combination,"[1]; KPN UFR25, AF1 @ 4 μg/mL",0.5 µg/mL
same,MIC ATB in combination,"[1]; KPN UFR25, AF1 @ 8 μg/mL",<=0.25 μg/mL
same,MIC ATB in combination,"[1]; KPN UFR27, AF1 @ 4 μg/mL",4 µg/mL
same,MIC ATB in combination,"[1]; KPN UFR27, AF1 @ 8 μg/mL",0.5 µg/mL
same,MIC ATB in combination,"[1]; KPN UFR28, AF1 @ 4 μg/mL",<=0.25 μg/mL
same,MIC ATB in combination,"[1]; KPN UFR28, AF1 @ 8 μg/mL",<=0.25 μg/mL
same,MIC ATB in combination,"[1]; KPN UFR65, AF1 @ 4 μg/mL",2 µg/mL
same,MIC ATB in combination,"[1]; KPN UFR65, AF1 @ 8 μg/mL",<=0.25 μg/mL
same,MIC ATB in combination,"[1]; KPN UFR66, AF1 @ 4 μg/mL",8 µg/mL
same,MIC ATB in combination,"[1]; KPN UFR66, AF1 @ 8 μg/mL",<=0.25 μg/mL
same,MIC ATB in combination,"[1]; KPN UFR67, AF1 @ 4 μg/mL",16 µg/mL
same,MIC ATB in combination,"[1]; KPN UFR67, AF1 @ 8 μg/mL",4 µg/mL
same,MIC ATB in combination,"[1]; KPN UFR68, AF1 @ 4 μg/mL",4 µg/mL
same,MIC ATB in combination,"[1]; KPN UFR68, AF1 @ 8 μg/mL",1 µg/mL
same,MIC ATB in combination,"[1]; KPN UFR76, AF1 @ 4 μg/mL",16 µg/mL
same,MIC ATB in combination,"[1]; KPN UFR76, AF1 @ 8 μg/mL",16 µg/mL
same,MIC ATB in combination,"[1]; KPN UFR77, AF1 @ 4 μg/mL",4 µg/mL
same,MIC ATB in combination,"[1]; KPN UFR77, AF1 @ 8 μg/mL",2 µg/mL
same,MIC ATB in combination,"[1]; KPN UFR78, AF1 @ 8 μg/mL",32 µg/mL
same,MIC ATB in combination,"[1]; KPN UFR79, AF1 @ 4 μg/mL",2 µg/mL
same,MIC ATB in combination,"[1]; KPN UFR79, AF1 @ 8 μg/mL",1 µg/mL
same,MIC ATB in combination,"[1]; KPN UFR80, AF1 @ 4 μg/mL",<=0.25 μg/mL
same,MIC ATB in combination,"[1]; KPN UFR80, AF1 @ 8 μg/mL",<=0.25 μg/mL
same,MIC ATB in combination,"[1]; KPN UFR81, AF1 @ 4 μg/mL",2 µg/mL
same,MIC ATB in combination,"[1]; KPN UFR81, AF1 @ 8 μg/mL",0.5 µg/mL
same,MIC ATB in combination,"[1]; KPN UFR215, AF1 @ 4 μg/mL",<=0.25 μg/mL
same,MIC ATB in combination,"[1]; KPN UFR215, AF1 @ 8 μg/mL",<=0.25 μg/mL
same,MIC ATB in combination,"[1]; KPN UFR216, AF1 @ 4 μg/mL",<=0.25 μg/mL
same,MIC ATB in combination,"[1]; KPN UFR216, AF1 @ 8 μg/mL",<=0.25 μg/mL
same,MIC ATB in combination,"[1]; KPN UFR217, AF1 @ 4 μg/mL",<=0.25 μg/mL
same,MIC ATB in combination,"[1]; KPN UFR217, AF1 @ 8 μg/mL",<=0.25 μg/mL
same,MIC ATB in combination,"[1]; KPN UFR219, AF1 @ 4 μg/mL",0.5 µg/mL
same,MIC ATB in combination,"[1]; KPN UFR219, AF1 @ 8 μg/mL",<=0.25 μg/mL
same,MIC ATB in combination,"[1]; KPN UFR220, AF1 @ 4 μg/mL",2 µg/mL
same,MIC ATB in combination,"[1]; KPN UFR220, AF1 @ 8 μg/mL",1 µg/mL
same,MIC ATB in combination,"[1]; KPN UFR221, AF1 @ 4 μg/mL",0.5 µg/mL
same,MIC ATB in combination,"[1]; KPN UFR221, AF1 @ 8 μg/mL",<=0.25 μg/mL
same,MIC ATB in combination,"[1]; KPN UFR222, AF1 @ 4 μg/mL",8 µg/mL
same,MIC ATB in combination,"[1]; KPN UFR222, AF1 @ 8 μg/mL",4 µg/mL
same,MIC ATB in combination,"[1]; KPN UFR227O, AF1 @ 4 μg/mL",2 µg/mL
same,MIC ATB in combination,"[1]; KPN UFR227O, AF1 @ 8 μg/mL",1 µg/mL
same,MIC,[1]; BAA1898,256 µg/mL
same,MIC,"[1]; strain KPN 200327 (TEM-1, SHV-1, CTX-M-15, OXA-1), ATB alone, read-out: MIC",32 µg/mL
same,MIC,"[1]; strain KPN LIB (SHV-11, OXA-48), ATB alone, read-out: MIC",0.25 µg/mL
same,MIC,"[1]; strain KPN UFR22_O (TEM-1, SHV-1, OXA-48), ATB alone, read-out: MIC",2 µg/mL
same,MIC,"[1]; strain KPN UFR23 (TEM-1, SHV-1, OXA-48), ATB alone, read-out: MIC",0.5 µg/mL
same,MIC,"[1]; strain KPN UFR77 (CMY-2), ATB alone, read-out: MIC",32 µg/mL
same,MIC,"[1]; strain KPN UFR79 (DHA-1, OXA-1), ATB alone, read-out: MIC",16 µg/mL
same,MIC,"[1]; strain KPN UFR80 (SHV-11, DHA-1, OXA-1), ATB alone, read-out: MIC",0.5 µg/mL
same,MIC,"[1]; strain KPN UFR221 (TEM-1, SHV-11, CTX-M-14, DHA-1), ATB alone, read-out: MIC",16 µg/mL
same,MIC ATB in combination,"[2]; CFR UFR10, AF1 @ 4 μg/mL",<=0.25 μg/mL
same,MIC ATB in combination,"[2]; CFR UFR10, AF1 @ 8 μg/mL",<=0.25 μg/mL
same,MIC ATB in combination,"[2]; CFR UFR11, AF1 @ 4 μg/mL",8 µg/mL
same,MIC ATB in combination,"[2]; CFR UFR11, AF1 @ 8 μg/mL",0.5 µg/mL

# Source: patent US20200017496A1 (priority 2017, published 2020)
